# From paper PMC10139132, “Immobilization of M3 Muscarinic Receptor to Rapidly Analyze Drug—Protein Interactions and Bioactive Components in a Natural Plant” (International Journal of Molecular Sciences, 2023)
# Structures can show the parent of a compound that is named as a salt.
# Columns and labels:
# [1] = target: muscarinic M3 receptor; settings: cited from earlier work
# [2] = test system: M3 muscarinic receptor (M3R); assay type: binding
# [3] = test system: M3 muscarinic receptor (M3R); assay type: binding; settings: immobilized M3R column; flow rates 0.4-3.6 mL/min
# [4] = test system: immobilized M3R; test: Identification of M3R-binding bioactive compounds in Daturae Flos extract on M3R-immobilized column with HPLC-MS; settings: retained peak 2 of Daturae Flos extract, identified by HPLC-MS/MS
# Method: The heating under reflux method was used to make the anhydrous extract of […]. In brief, 10 g of dried DF was soaked in 100 mL of water for 0.5 h, boiled for 2 × 1 h, filtered, and concentrated to 10 mL via rotary evaporation at 60 °C under reduced pressure. A solution of 95% ethanol was applied to carry out alcohol sedimentation to reduce the alcohol content of the concentrated extract to 75%. The liquid supernatant was concentrated at 60 °C to obtain an herbal solution of 1.0 g/mL.
# The M3R-immobilized column was utilized to analyze the active components in the DF extract with an Agilent 1100 chromatographic system. The mobile phase was 5 mM ammonium acetate buffer, the flow rate was 0.3 mL/min, the sample volume was 10 μL, and the detection wavelength was 254 nm. […] It was further analyzed using high performance liquid chromatography (HPLC)–mass spectrometry (MS).
# An Eclipse XDB-C18 column (2.1 × 150 mm, 3.5 μm) was employed for chromatographic analysis with a 0.1% formic acid solution and methanol (40:60, v/v) as the mobile phase, a flow rate of 0.3 mL/min, and a column temperature of 30 °C. The MS analysis was carried out in both negative and positive modes with a scan range of 100–2000 amu, a nebulizing gas pressure of 30 psi, a flow rate of 8.0 L/min, and a dry gas temperature of […], respectively.
# [5] = test system: immobilized M3R; test: Specificity of the M3R-immobilized column (retention times of ligands); assay type: binding
# [6] = phosphate buffer 20 mM pH 7.4, flow rate 0.2 mL/min, injection 10 μL
structure (smiles),measurement,setting,value
"CN1[C@@H]2CC(OC(=O)[C@H](CO)c3ccccc3)C[C@H]1[C@@H]1O[C@@H]12.Cl (single isomer, unassigned; (-)) [(−)-Scopolamine hydrochloride]",kd by the Radioligand Binding Assay,[1],0.00517 ± 0.0005 s⁻¹
same,KA by Frontal Analysis (association constant),[2],(2.39 ± 0.03) × 10^4 M^−1
"CN1[C@@H]2CC[C@H]1C[C@@H](OC(=O)C(CO)c1ccccc1)C2 (stereo partly shown) [Atropine sulfate, atropine sulfate]",kd by the Peak Profiling Method (dissociation rate constant),[3],0.238 ± 0.00283 s⁻¹
same,KA by Frontal Analysis (association constant),[2],(3.71 ± 0.03) × 10^4 M^−1
"CN1[C@@H]2CC[C@H]1C[C@@H](OC(=O)[C@H](CO)c1ccccc1)C2 [Hyoscyamine, hyoscyamine]",binding to M3R of compounds from the DF extract,[4],bind to M3R
CC[C@@H]1C(=O)OC[C@@H]1Cc1cncn1C [Pilocarpine],retention time on the M3R-immobilized column,[5]; [6],5.4 min
CCCCC(=O)N(Cc1ccc(-c2ccccc2-c2nnn[nH]2)cc1)[C@H](C(=O)O)C(C)C [Valsartan],specific binding on the M3R-immobilized column,[5]; judged from retention time vs system void time,no specific binding occurred
same,retention time on the M3R-immobilized column,[5]; [6],2.3 min
CN1[C@@H]2C[C@@H](OC(=O)[C@H](CO)c3ccccc3)C[C@H]1[C@@H]1O[C@@H]12 [scopolamine],binding to M3R of compounds from the DF extract,[4],bind to M3R
"O=N[O-].[Na+] [sodium nitrite, Sodium nitrite]",retention time on the M3R-immobilized column,[5]; pH 7.4,1.1 min
